ChEMBL document CHEMBL3351986, “Probing linker design in citric acid-ciprofloxacin conjugates” (2014)
In brackets after ≈: the same amount, converted by molar mass. Activity calls are given as the source filed them. No cut-off for these calls is given here.

Tests used:
[1] = tested on: Staphylococcus epidermidis; assay: Antimicrobial activity against Staphylococcus epidermidis NCTC 2749 after 18 hrs by micro dilution method; type: functional; settings: NCTC 2749, 18 h
[2] = tested on: Burkholderia cepacia; assay: Antimicrobial activity against Burkholderia cepacia BIG 117 after 18 hrs by micro dilution method; type: functional; settings: BIG 117, 18 h
[3] = tested on: Staphylococcus aureus; assay: Ratio of compound MIC to ciprofloxacin MIC for Staphylococcus aureus NCTC 13142 after 18 hrs by micro dilution method; type: functional
[4] = tested on: Staphylococcus epidermidis; assay: Ratio of compound MIC to ciprofloxacin MIC for Staphylococcus epidermidis NCTC 2749 after 18 hrs by micro dilution method; type: functional
[5] = tested on: Burkholderia cepacia; assay: Ratio of compound MIC to ciprofloxacin MIC for Burkholderia cepacia BIG 118 after 18 hrs by micro dilution method; type: functional
[6] = tested on: Burkholderia cepacia; assay: Antimicrobial activity against Burkholderia cepacia BIG 121 after 18 hrs by micro dilution method; type: functional; settings: BIG 121, 18 h
[7] = tested on: Pseudomonas aeruginosa; assay: Ratio of compound MIC to ciprofloxacin MIC for Pseudomonas aeruginosa BIG 37 clinical isolate after 18 hrs by micro dilution method; type: functional
[8] = tested on: Stenotrophomonas maltophilia; assay: Antimicrobial activity against Stenotrophomonas maltophilia N1119 after 18 hrs by micro dilution method; type: functional; settings: N1119, 18 h
[9] = tested on: Stenotrophomonas maltophilia; assay: Ratio of compound MIC to ciprofloxacin MIC for Stenotrophomonas maltophilia N1119 after 18 hrs by micro dilution method; type: functional
[10] = tested on: Pseudomonas aeruginosa; assay: Ratio of compound MIC to ciprofloxacin MIC for Pseudomonas aeruginosa BIG 63 after 18 hrs by micro dilution method; type: functional
[11] = Inhibition of DNA gyrase (unknown origin) assessed as reduction in supercoiled form of DNA at 20 uM using ethidium bromide staining by gel electrophoresis
[12] = tested on: Burkholderia cepacia; assay: Ratio of compound MIC to ciprofloxacin MIC for Burkholderia cepacia BIG 9 NCTC 10744 after 18 hrs by micro dilution method; type: functional
[13] = tested on: Staphylococcus haemolyticus; assay: Antimicrobial activity against Staphylococcus haemolyticus NCTC 11042 after 18 hrs by micro dilution method; type: functional; settings: NCTC 11042, 18 h
[14] = tested on: Burkholderia cepacia; assay: Antimicrobial activity against Burkholderia cepacia BIG 118 after 18 hrs by micro dilution method; type: functional; settings: BIG 118, 18 h
[15] = tested on: Pseudomonas aeruginosa; assay: Antimicrobial activity against Pseudomonas aeruginosa NCTC 10662 after 18 hrs by micro dilution method; type: functional; settings: NCTC 10662, 18 h
[16] = tested on: Staphylococcus aureus; assay: Antimicrobial activity against Staphylococcus aureus NCTC 13143 after 18 hrs by micro dilution method; type: functional; settings: NCTC 13143, 18 h
[17] = tested on: Stenotrophomonas maltophilia; assay: Antimicrobial activity against Stenotrophomonas maltophilia N1127 after 18 hrs by micro dilution method; type: functional; settings: N1127, 18 h
[18] = tested on: Serratia marcescens; assay: Ratio of compound MIC to ciprofloxacin MIC for Serratia marcescens BIG 11 NCTC 1377 after 18 hrs by micro dilution method; type: functional
[19] = tested on: Escherichia coli; assay: Ratio of compound MIC to ciprofloxacin MIC for Escherichia coli NCTC 10418 after 18 hrs by micro dilution method; type: functional
[20] = tested on: Staphylococcus aureus; assay: Antimicrobial activity against Staphylococcus aureus HG-1 after 18 hrs by micro dilution method; type: functional; settings: HG-1, 18 h
[21] = tested on: Pseudomonas aeruginosa; assay: Ratio of compound MIC to ciprofloxacin MIC for Pseudomonas aeruginosa environmental isolate after 18 hrs by micro dilution method; type: functional
[22] = tested on: Staphylococcus aureus; assay: Antimicrobial activity against Staphylococcus aureus NCTC 13142 after 18 hrs by micro dilution method; type: functional; settings: NCTC 13142, 18 h
[23] = tested on: Staphylococcus aureus; assay: Ratio of compound MIC to ciprofloxacin MIC for Staphylococcus aureus (Oxford) NCTC 6571 after 18 hrs by micro dilution method; type: functional
[24] = tested on: Burkholderia cepacia; assay: Ratio of compound MIC to ciprofloxacin MIC for Burkholderia cepacia BIG 117 after 18 hrs by micro dilution method; type: functional
[25] = tested on: Escherichia coli; assay: Antimicrobial activity against Escherichia coli BIG 0046 after 18 hrs by micro dilution method; type: functional; settings: BIG 0046, 18 h
[26] = tested on: Burkholderia cepacia; assay: Ratio of compound MIC to ciprofloxacin MIC for Burkholderia cepacia BIG 120 after 18 hrs by micro dilution method; type: functional
[27] = tested on: Serratia marcescens; assay: Antimicrobial activity against Serratia marcescens BIG 11 NCTC 1377 after 18 hrs by micro dilution method; type: functional; settings: BIG 11 NCTC 1377, 18 h
[28] = tested on: Burkholderia cepacia; assay: Antimicrobial activity against Burkholderia cepacia BIG 9 NCTC 10744 after 18 hrs by micro dilution method; type: functional; settings: BIG 9 NCTC 10744, 18 h
[29] = tested on: Pseudomonas aeruginosa; assay: Antimicrobial activity against Pseudomonas aeruginosa environmental isolate BIG 39 after 18 hrs by micro dilution method; type: functional; settings: BIG 39, 18 h
[30] = tested on: Pseudomonas aeruginosa; assay: Antimicrobial activity against Pseudomonas aeruginosa BIG 63 after 18 hrs by micro dilution method; type: functional; settings: BIG 63, 18 h
[31] = tested on: Pseudomonas aeruginosa; assay: Ratio of compound MIC to ciprofloxacin MIC for Pseudomonas aeruginosa NCTC 10662 after 18 hrs by micro dilution method; type: functional
[32] = tested on: Stenotrophomonas maltophilia; assay: Antimicrobial activity against Stenotrophomonas maltophilia N1124 after 18 hrs by micro dilution method; type: functional; settings: N1124, 18 h
[33] = tested on: Staphylococcus aureus; assay: Ratio of compound MIC to ciprofloxacin MIC for Staphylococcus aureus BIG 52 after 18 hrs by micro dilution method; type: functional
[34] = tested on: Stenotrophomonas maltophilia; assay: Ratio of compound MIC to ciprofloxacin MIC for Stenotrophomonas maltophilia N1127 after 18 hrs by micro dilution method; type: functional
[35] = tested on: Pseudomonas aeruginosa; assay: Antimicrobial activity against Pseudomonas aeruginosa BIG 37 clinical isolate after 18 hrs by micro dilution method; type: functional; settings: BIG 37, 18 h
[36] = tested on: Staphylococcus epidermidis; assay: Antimicrobial activity against Staphylococcus epidermidis NCTC 11047 after 18 hrs by micro dilution method; type: functional; settings: NCTC 11047, 18 h
[37] = tested on: Staphylococcus haemolyticus; assay: Ratio of compound MIC to ciprofloxacin MIC for Staphylococcus haemolyticus NCTC 11042 after 18 hrs by micro dilution method; type: functional
[38] = tested on: Staphylococcus aureus; assay: Antimicrobial activity against Staphylococcus aureus (Oxford) NCTC 6571 after 18 hrs by micro dilution method; type: functional; settings: (Oxford) NCTC 6571, 18 h
[39] = tested on: Staphylococcus aureus; assay: Antimicrobial activity against Staphylococcus aureus BIG 52 after 18 hrs by micro dilution method; type: functional; settings: BIG 52, 18 h
[40] = tested on: Staphylococcus epidermidis; assay: Ratio of compound MIC to ciprofloxacin MIC for Staphylococcus epidermidis NCTC 11047 after 18 hrs by micro dilution method; type: functional
[41] = tested on: Escherichia coli; assay: Antimicrobial activity against Escherichia coli NCTC 10418 after 18 hrs by micro dilution method; type: functional; settings: NCTC 10418, 18 h
[42] = tested on: Burkholderia cepacia; assay: Antimicrobial activity against Burkholderia cepacia BIG 119 after 18 hrs by micro dilution method; type: functional; settings: BIG 119, 18 h
[43] = tested on: Burkholderia cepacia; assay: Antimicrobial activity against Burkholderia cepacia BIG 120 after 18 hrs by micro dilution method; type: functional; settings: BIG 120, 18 h
[44] = tested on: Burkholderia cepacia; assay: Ratio of compound MIC to ciprofloxacin MIC for Burkholderia cepacia BIG 119 after 18 hrs by micro dilution method; type: functional
[45] = tested on: Stenotrophomonas maltophilia; assay: Ratio of compound MIC to ciprofloxacin MIC for Stenotrophomonas maltophilia N1124 after 18 hrs by micro dilution method; type: functional

O=C(O)CC(O)(CC(=O)N1CCN(c2cc3c(cc2F)c(=O)c(C(=O)O)cn3C2CC2)CC1)C(=O)O (configuration not stated)
MIC [1]: 8 µg/mL (≈ 15.8 µM)
MIC [2]: 16 µg/mL (≈ 31.7 µM)
Ratio [3]: 10.5
Ratio [4]: 20.9
Ratio [5]: 41.8
MIC [6]: > 36 µg/mL
Ratio [7]: 5.2
MIC [8]: 32 µg/mL (≈ 63.3 µM)
Ratio [9]: 20.1
Ratio [10]: 10.5
inhibition [11]: Active
Ratio [12]: 20.9
MIC [13]: 16 µg/mL (≈ 31.7 µM)
MIC [14]: 16 µg/mL (≈ 31.7 µM)
MIC [15]: 4 µg/mL (≈ 7.91 µM)
MIC [16]: > 36 µg/mL
MIC [17]: 32 µg/mL (≈ 63.3 µM)
Ratio [18]: 11
Ratio [19]: 2.8
MIC [20]: > 36 µg/mL
Ratio [21]: 10.5
MIC [22]: 8 µg/mL (≈ 15.8 µM)
Ratio [23]: 41.8
Ratio [24]: 10.5
MIC [25]: > 36 µg/mL
Ratio [26]: 5.2
MIC [27]: 1 µg/mL (≈ 1.98 µM)
MIC [28]: 16 µg/mL (≈ 31.7 µM)
MIC [29]: 4 µg/mL (≈ 7.91 µM)
MIC [30]: 4 µg/mL (≈ 7.91 µM)
Ratio [31]: 10.5
MIC [32]: > 36 µg/mL
Ratio [33]: 20.9
Ratio [34]: 10.5
MIC [35]: 16 µg/mL (≈ 31.7 µM)
MIC [36]: 16 µg/mL (≈ 31.7 µM)
Ratio [37]: 83.8
MIC [38]: 16 µg/mL (≈ 31.7 µM)
MIC [39]: 16 µg/mL (≈ 31.7 µM)
Ratio [40]: 83.8
MIC [41]: 0.25 µg/mL (≈ 0.495 µM)
MIC [42]: > 36 µg/mL
MIC [43]: 16 µg/mL (≈ 31.7 µM)

O=C(O)CC(O)(CC(=O)NCC(=O)N1CCN(c2cc3c(cc2F)c(=O)c(C(=O)O)cn3C2CC2)CC1)C(=O)O (racemic)
MIC [1]: 8 µg/mL (≈ 14.2 µM)
MIC [2]: 8 µg/mL (≈ 14.2 µM)
Ratio [3]: 18.8
Ratio [4]: 18.8
Ratio [5]: 18.8
MIC [6]: > 36 µg/mL
Ratio [7]: 4.7
MIC [8]: > 36 µg/mL
Ratio [10]: 18.8
inhibition [11]: Active
Ratio [12]: 9.4
MIC [13]: 16 µg/mL (≈ 28.4 µM)
MIC [14]: 8 µg/mL (≈ 14.2 µM)
MIC [15]: 2 µg/mL (≈ 3.56 µM)
MIC [16]: > 36 µg/mL
MIC [17]: 32 µg/mL (≈ 56.9 µM)
Ratio [18]: 4.91
Ratio [19]: 1.23
MIC [20]: > 36 µg/mL
Ratio [21]: 4.72
MIC [22]: 16 µg/mL (≈ 28.4 µM)
Ratio [23]: 37.6
Ratio [24]: 4.7
MIC [25]: 36 µg/mL (≈ 64 µM)
Ratio [44]: 4.7
Ratio [26]: 9.4
MIC [27]: 0.5 µg/mL (≈ 0.889 µM)
MIC [28]: 8 µg/mL (≈ 14.2 µM)
MIC [29]: 2 µg/mL (≈ 3.56 µM)
MIC [30]: 8 µg/mL (≈ 14.2 µM)
Ratio [31]: 4.72
MIC [32]: 32 µg/mL (≈ 56.9 µM)
Ratio [33]: 18.8
Ratio [34]: 9.4
MIC [35]: 16 µg/mL (≈ 28.4 µM)
MIC [36]: 16 µg/mL (≈ 28.4 µM)
Ratio [37]: 75.3
MIC [38]: 16 µg/mL (≈ 28.4 µM)
MIC [39]: 16 µg/mL (≈ 28.4 µM)
Ratio [45]: 4.7
Ratio [40]: 75.3
MIC [41]: 0.125 µg/mL (≈ 0.222 µM)
MIC [42]: 32 µg/mL (≈ 56.9 µM)
MIC [43]: 32 µg/mL (≈ 56.9 µM)
